In patent publication EP0185979A1, “A novel substance having anti-tumor activity, a microbiological process for the preparation thereof and its use as a medicament” (MICROBIAL CHEMISTRY RESEARCH FOUNDATION, priority 1984, dated 1986) one finds IC50, anti-tumor activity and cytotoxicity data, which are given here for one compound.

≈ marks a conversion by molar mass, not a printed value.

Data set [1] has as its system cultured mouse leukemia cell P388. Nature of the data set: inhibition of growth of cultured cells. The data set is classed as cell-based. The following applies: read-out: median inhibition dose, ID50. Here is the method:
The anti-tumor activity of substance MG883-12F2 can be confirmed by measuring its ability to inhibit the growth of known cultured cells. For example, the median inhibition dose, ID50, of substance MG883-12F2 against cultured mouse leukemia cell P388 was 0.5 mg/ml.

A short description of data set [2]: anti-tumor activity compared with streptonigrin. The following applies: comparison with streptonigrin, no data given.
Data set [3] can be described thus: cytotoxicity compared with streptonigrin. The following applies: comparison with streptonigrin, no data given.

In the case of `COc1ccc(-c2c(C)c(C(=O)O)nc(-c3ccc4c(n3)C(=O)C(N)=C(O)C4=O)c2N)c(O)c1OC` [substance MG883-12F2], in data set [1], the IC50 was determined as 500 µg/mL (≈ 1020 µM). The anti-tumor activity result in data set [2] is reported as “slightly inferior to streptonigrin”. For the same compound, the cytotoxicity result in data set [3] is reported as “lower cytotoxicity”.
